Experimental data: patent US8318422B2, “Antibacterial treatment of osteoarthritis” (Orthogenics AS, priority 2001, dated 2012)

Columns and labels:
[1] = system: patients with Osteoarthritis; assay: Clinical study: antibiotic treatment of patients with osteoarthritis, KOOS (Knee Injury and Osteoarthritis Outcome Score); format: in vivo, human; settings: 100 mg daily for 4 weeks
From the text: Thirty patients were diagnosed and treated for one month with the antibiotic known generically internationally as Doxycycline, this was purchased as Vibramycin from Pfizer. Samples from synovial fluid were taken before and after treatment. We identified 30 patients that had clinical and radiological signs of Osteoarthritis. These patients were informed and signed a paper according to the instructions from the ethical committee (Northern Norway Health Region 5). We used the KOOS (Knee Injury and Osteoarthritis Outcome Score) [Roos et al: Development of a self-administered outcome measure. Journal of Orthopaedic and Sports Physical Therapy 78(2): 88-96, 1998] and the Lysholm score [Ref. […] and Lysholm: Rating systems in the Evaluation of Knee Ligament Injuries. Clinical Orthopaedics an Related Research Number 198 September 1985: 43-49.] During the first visit we took a sample from the synovial fluid. Standard technique, upper lateral portal, using a 10 ml. syringe. […] The samples were immediately put into an icebox and brought to the lab. All the patients were given Vibramycin 100 mg daily for 4 weeks. From the patients where we found the bacteria, we took new synovial-fluid samples using the same technique. […] KOOS: These parameters were analysed. • Symptoms • Activity of daily living • Sport • Quality of daily living • Pain

[2] = system: patients with Osteoarthritis; assay: Clinical study: response to antibiotic treatment as determined by direct questions to the patients; format: in vivo, human; settings: following 4 weeks of treatment
From the text: Thirty patients were diagnosed and treated for one month with the antibiotic known generically internationally as Doxycycline, this was purchased as Vibramycin from Pfizer. Samples from synovial fluid were taken before and after treatment. We identified 30 patients that had clinical and radiological signs of Osteoarthritis. These patients were informed and signed a paper according to the instructions from the ethical committee (Northern Norway Health Region 5). During the first visit we took a sample from the synovial fluid. Standard technique, upper lateral portal, using a 10 ml. syringe. […] The samples were immediately put into an icebox and brought to the lab. All the patients were given Vibramycin 100 mg daily for 4 weeks. From the patients where we found the bacteria, we took new synovial-fluid samples using the same technique. Table 3 below show a summary of the response to antibiotic treatment with tetracycline for four weeks as determined by direct questions to the patients on how they felt.

collagenase = settings: Yu et al. 1991; cited from earlier work
Pseudomonas [3] = settings: cited from earlier work
Pseudomonas [4] = settings: cited from earlier work; remark: listed apart in the source

C[C@H]1c2cccc(O)c2C(O)=C2C(=O)[C@]3(O)C(O)=C(C(N)=O)C(=O)[C@@H](N(C)C)[C@@H]3[C@@H](O)[C@@H]21 [Vibramycin, Doxycycline]
clinical scores for the patient (KOOS and Lysholm) [1]: improved all the clinical scores | symptoms in the majority of patients tested [2]: improved symptoms | the patient's collagenase activity (collagenase): inhibit the patient's collagenase activity

CC(O)C(=O)O.O=C(O)c1cn(C2CC2)c2cc(N3CCNCC3)c(F)cc2c1=O [ciprofloxacinlactate]
effectiveness against Pseudomonas (Pseudomonas [3]): effective against Pseudomonas

NC(N)=NCCS [mercaptoethylguanidine]
inflammatory response of Pseudomonas infection due to nitric oxide (Pseudomonas [4]): inhibit the inflammatory response
